Test results published in publication PMC11455950, “Effects of SZV-2649, a new multiple ion channel inhibitor mexiletine analogue” (Scientific Reports, 2024).

Assays:
[1] = tested on: IKACh in dog atrial trabecular muscle preparations; assay: Action potential duration in carbachol-pretreated dog atrial trabecular muscle; conditions: 1 µM, 10 min
Protocol: The possible effect of SZV-2649 on IKACh was investigated in dog atrial trabecular muscle preparations. Carbachol (1 µM) was added to the tissue bath for 10 min to activate IKACh. […] Application of 10 µM SZV-2649 prolonged APD substantially to a greater degree (100%) than could be expected by its effect on repolarization in the absence of carbachol (10%) as shown in Table 1; Fig. 5D.
Action potentials were recorded in cardiac ventricular trabeculae and papillary muscle preparations obtained from the right ventricles of Beagle dogs (10–15 kg) of either sex using the conventional microelectrode technique. Dogs were sacrificed by iv. sedation with xylazine (1 mg/kg), followed by i.v. administration of 50 mg/kg pentobarbital. After the cornea reflex disapeared the chest was opened, and the heart was rapidly removed. […]
Isolated papillary muscle or atrial trabecula and Purkinje fiber preparations were obtained and prepared from the right ventricle and were individually mounted in a tissue chamber with the volume of 50 ml. […] Transmembrane potentials were recorded using conventional glass microelectrodes, filled with 3 M KCl and having tip resistances of 5–20 MΩ, connected to the input of a high impedance electrometer (Experimetria, type 309, Budapest, Hungary) which was coupled to a dual beam oscilloscope. […]

anesthetized rats = assay: Coronary artery occlusion/reperfusion-induced ventricular arrhythmias in anesthetized rats; assay type: in vivo, rat; conditions: for Effect on incidence of ventricular arrhythmias: 6 min coronary artery occlusion / 5 min reperfusion, i.v. 2 min before ischemia; for Incidence of ventricular fibrillation (VF): during reperfusion, over 50% in control animals; for Effect on heart rate: i.v. administration, anesthetized rats
Excerpt: The effects of SZV-2649 were further studied in the acute ischemia-induced ventricular arrhythmia model in anasthetized rats. Mexiletine and dofetilide were used as reference compounds for comparison.
The surgical procedure was based on a modified method described in detail in Gömöri et al. (2020)[62]. Pentobarbital-anesthetized male Wistar-Hannover rats were mechanically ventilated and subjected to thoracic surgery to perform a 6-min coronary artery occlusion and 5-min of reperfusion for the development of ischemia-induced ventricular arrhythmias (see Fig. 6A). The right jugular vein was cannulated for the administration of SZV-2649, vehicle, mexiletine or dofetilide, and the right carotid artery was used to measure blood pressure. The three-lead electrocardiogram and body temperature were continuously registered. Ten to twelve rats per group were administered vehicle (dimethyl sulfoxide, 200 µL/kg) or the studied drugs (see above), 2 min before the onset of ischemia as a slow i.v. bolus injection through the right jugular vein. At the end of 5-min reperfusion, hearts were isolated, mounted onto a Langendorff perfusion system, and after re-occluding the coronary artery, were perfused with 5-mL of 70% ethanol via the ascending aorta to delineate the ischemic risk zone. Then the left ventricles were cut along the demarcation lines of denatured area, and the sections were weighed to determine the area of risk to normalize the extent of the ischaemic insult. We evaluated the occurrence of ventricular arrhythmias based on the recommendations of the modified Lambeth Conventions published previously by Curtis et al. (2013)[63].

anesthetized dogs = assay: Atrial fibrillation induced by carbachol infusion and burst stimulation in anesthetized dogs; assay type: in vivo, dog; set-up: key to AF converted to SR? / AF reinduced?: N, response not observed; Y, response observed; conditions: i.v. 0.3 mg/kg
Protocol: The effect of SZV-2649 was further investigated in carbachol-infused and programmed electrical stimulation-induced (i.e. 800/min atrial burst stimulation) acute atrial fibillation model in anesthetized dogs.
In the atrial fibrillation experiments, at least 5–6 dogs for control and test groups, (respectively) were used. Following 0.5 µg/kg sufentanyl premedication and […] i.v. pentobarbital anaesthesia induction, left thoracotomy was performed on all animals. Dogs were endotracheally intubated and mechanically ventilated (UGO Basile respirator; Biological Research Apparatus, Italy) Physiological parameters (non-invasive blood pressure, SpO2, ECG) were continuously monitored during surgery and experiments (InnoCare-VET Patient Care Monitor; Budapest, Hungary). The ECGs were recorded using precordial leads and were digitized and stored on a computer for off-line analysis using National Instruments data acquisition hardware (National Instruments, Austin, Texas, USA) and SPEL Advanced Haemosys software (version 3.2, MDE Heidelberg GmbH, Germany). Under pentobarbital anaesthesia, two pacemaker electrodes (Biotronik Solia S 60; Biotronik Ltd., Hungary) were positioned epicardially into the left atrial appendage and apex of the left ventricle, respectively, and electrodes were connected to pacemakers (Effecta D; Biotronik Hungary Ltd., Hungary). Pacemakers were programmed in VVI mode using Biotronik IC: 4808 A-Renamic programmer to prevent the potentially bradycardic effect of carbachol leading to hemodynamic instability. Atrial and ventricular thresholds were measured before AF induction in all animals. Ventricular and atrial pacing were set to three times the measured threshold. AF inducibility were tested in both groups using a control set (25 times) of 10-second-long rapid atrial bursts (800 beats/min, at threefold threshold). Following 25 atrial burst stimuli, 2 × 2 µg/kg loading dose of intravenous carbachol was administered followed by an 8 µg/kg/h maintenance dose. Atrial fibrillation was induced using 10-second-long atrial burst stimuli in the presence of carbachol in both groups of dogs. […] In these experiments, we investigated whether AF was converted to SR by the test drug(s). All intravenous infusions were performed using a programmable infusion pump (Terufusion TE-3; Terumo Europe, Leuven, Belgium).

SMILES | Effect on incidence of ventricular arrhythmias (anesthetized rats) | Incidence of ventricular fibrillation (VF) (anesthetized rats) [%] | Effect on heart rate (anesthetized rats) | also measured
C[N+](C)(C)CCOC(N)=O [carbachol, reference compound] | – | – | – | Effect on atrial repolarization [1]: substantially shortened
CN(CCOc1ccc(NS(C)(=O)=O)cc1)CCc1ccc(NS(C)(=O)=O)cc1 [dofetilide] | increased | 75 | significantly decreased | –
Cc1cccc(C)c1OCC(C)N (centres unmarked) [mexiletine] | showed some antiarrhythmic effects | 18 | significantly decreased | –
CCCNCC(O)COc1ccccc1C(=O)CCc1ccccc1 (centres unmarked) [propafenone, reference compound] | – | – | – | AF reinduced (number of the 25 burst stimuli) (anesthetized dogs; individual dogs, carbachol + burst): 1/25; AF reinduced? (anesthetized dogs; individual dogs, carbachol + burst, 0.3 mg/kg): N (-) and Y; Atrial fibrillation reinduced, share of burst stimuli (anesthetized dogs; whole group): 1.6%; Times atrial fibrillation was reinduced by the 25 burst stimuli delivered in each animal (anesthetized dogs; whole group): 2 times
